# Assay results taken from US20260041649A1, “ANTI-INFLAMMATORY AGENT” (WATANABE OYSTER LABORATORY, CO., LTD., priority 2023, published 2026).
# System: RAW264.7 cells cultured with LPS
# Assay: Cell death of RAW264.7 cells cultured with LPS
# Type: cell-based, mouse
# Settings: DHMBA 1 or 10 μM, LPS 100 ng/ml, 48 hours, subconfluent cells
# Description: In FIG. 5A, to examine the effect on cell proliferation, RAW264.7 cells (1×10^5/ml/well) were cultured for 3 days in a DMEM culture medium containing 10% FBS, 1% P/S, and 1% fungizone in the control group (1% ethanol as final concentration) with or without LPS (1, 10, 50, 100, 500 ng/ml). In FIG. 5B, cells (1×10^5/ml per well) were cultured for 3 days in a DMEM culture medium containing 10% FBS, 1% P/S, and 1% fungizone in the DHMBA-treated group (1 or 10 μM) with or without LPS (100 ng/ml). In FIG. 5C, to examine the effect on cell death, cells that had reached subconfluence after 3 days of culture were cultured for another 48 hours in the control group (1% ethanol) with or without LPS (1, 10, 50, 100, or 500 ng/ml). […] After the culture, the number of cells attached to the dish was counted. […]
# In an additional experiment, to determine the effect of DHMBA on RAW264.7 cell death, RAW264.7 cells were cultured in the presence of LPS. […] After the culture, the cells were detached with a Ca^2+/Mg^2+ free PBS solution with 0.05% trypsin/EDTA (0.1 ml per well) as described in the “Cell proliferation assay” section, and the cells were counted as described in the “Cell count” section below. […]
# The number of viable cells was counted under a microscope (Olympus MTV-3) using a hemocytometer (Sigma-Aldrich) and a cell counter (H-102P, Line Seiki Co., Ltd., Tokyo, Japan).
smiles,measurement,value
"COc1c(O)cc(CO)cc1O [DHMBA, 3,5-dihydroxy-4-methoxybenzyl alcohol]",effect on RAW264.7 cell death in the presence of LPS,exhibited
